Measured values: ChEMBL document CHEMBL3431459, “Roche carnitine palmitoyltransferase modulator screening data (supplementary data associated with the publication CHEMBL2216752)”
pIC50: −log10 of the molar value. In brackets after ≈: the same amount, converted by molar mass.

Columns and labels:
[1] = SUPPLEMENTARY: Lyophilisation Solubility Assay (LYSA); format: physicochemical; conditions: read-out: Kinetic_solubility
[2] = target: T1, Carnitine O-palmitoyltransferase 2, mitochondrial (Rattus norvegicus, UniProt P18886); assay: (§1) SUPPLEMENTARY: Inhibition of Carnitine palmitoyltransferase 2
T1 sequence (P18886 whole entry): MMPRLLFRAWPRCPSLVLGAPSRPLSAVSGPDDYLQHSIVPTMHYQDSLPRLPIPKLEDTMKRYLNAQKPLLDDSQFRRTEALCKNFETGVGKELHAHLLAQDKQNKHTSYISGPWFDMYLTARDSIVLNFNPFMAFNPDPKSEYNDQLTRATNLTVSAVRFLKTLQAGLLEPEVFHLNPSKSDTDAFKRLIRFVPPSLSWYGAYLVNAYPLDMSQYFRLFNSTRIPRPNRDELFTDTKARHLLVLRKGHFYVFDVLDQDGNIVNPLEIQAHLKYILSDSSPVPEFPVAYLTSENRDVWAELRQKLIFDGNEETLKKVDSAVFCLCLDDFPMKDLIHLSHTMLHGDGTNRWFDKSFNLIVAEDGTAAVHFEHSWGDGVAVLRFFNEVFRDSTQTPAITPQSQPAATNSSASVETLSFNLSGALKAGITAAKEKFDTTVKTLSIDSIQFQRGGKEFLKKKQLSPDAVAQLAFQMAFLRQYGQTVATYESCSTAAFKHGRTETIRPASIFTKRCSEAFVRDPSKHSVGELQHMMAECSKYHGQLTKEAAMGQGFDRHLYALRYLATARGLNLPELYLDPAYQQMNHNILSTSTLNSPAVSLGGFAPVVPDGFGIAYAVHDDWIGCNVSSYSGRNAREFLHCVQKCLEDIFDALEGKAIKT

[3] = target: T2, Carnitine O-palmitoyltransferase 2, mitochondrial (Homo sapiens, UniProt P23786); assay: as §1
T2 sequence (P23786 whole entry): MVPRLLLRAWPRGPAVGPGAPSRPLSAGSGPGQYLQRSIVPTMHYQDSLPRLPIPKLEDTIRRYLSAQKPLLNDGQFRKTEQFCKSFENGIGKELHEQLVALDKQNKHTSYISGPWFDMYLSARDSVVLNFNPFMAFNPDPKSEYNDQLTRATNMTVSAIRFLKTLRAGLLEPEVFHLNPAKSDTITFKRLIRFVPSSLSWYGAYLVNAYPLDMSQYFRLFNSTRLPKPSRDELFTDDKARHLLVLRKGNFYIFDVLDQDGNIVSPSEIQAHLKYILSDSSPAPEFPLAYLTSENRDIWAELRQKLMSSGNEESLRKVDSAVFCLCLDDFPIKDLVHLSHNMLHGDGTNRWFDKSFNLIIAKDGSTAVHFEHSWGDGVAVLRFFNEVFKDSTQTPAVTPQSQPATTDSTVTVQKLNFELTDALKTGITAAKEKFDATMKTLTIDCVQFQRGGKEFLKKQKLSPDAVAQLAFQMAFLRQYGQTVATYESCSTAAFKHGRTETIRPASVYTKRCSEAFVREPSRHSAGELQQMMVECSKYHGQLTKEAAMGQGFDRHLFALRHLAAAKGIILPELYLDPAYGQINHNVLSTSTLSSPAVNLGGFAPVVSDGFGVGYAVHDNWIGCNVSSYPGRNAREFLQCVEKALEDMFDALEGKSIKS

[4] = SUPPLEMENTARY: Lipophilicity (log D) Determination by high-throughput shake-flask; format: physicochemical; conditions: octanol/water
[5] = target: T3, Carnitine O-palmitoyltransferase 1, liver isoform (Homo sapiens, UniProt P50416); assay: (§2) SUPPLEMENTARY: Inhibition of Carnitine palmitoyltransferase 1, liver isoform
T3 sequence (P50416 whole entry): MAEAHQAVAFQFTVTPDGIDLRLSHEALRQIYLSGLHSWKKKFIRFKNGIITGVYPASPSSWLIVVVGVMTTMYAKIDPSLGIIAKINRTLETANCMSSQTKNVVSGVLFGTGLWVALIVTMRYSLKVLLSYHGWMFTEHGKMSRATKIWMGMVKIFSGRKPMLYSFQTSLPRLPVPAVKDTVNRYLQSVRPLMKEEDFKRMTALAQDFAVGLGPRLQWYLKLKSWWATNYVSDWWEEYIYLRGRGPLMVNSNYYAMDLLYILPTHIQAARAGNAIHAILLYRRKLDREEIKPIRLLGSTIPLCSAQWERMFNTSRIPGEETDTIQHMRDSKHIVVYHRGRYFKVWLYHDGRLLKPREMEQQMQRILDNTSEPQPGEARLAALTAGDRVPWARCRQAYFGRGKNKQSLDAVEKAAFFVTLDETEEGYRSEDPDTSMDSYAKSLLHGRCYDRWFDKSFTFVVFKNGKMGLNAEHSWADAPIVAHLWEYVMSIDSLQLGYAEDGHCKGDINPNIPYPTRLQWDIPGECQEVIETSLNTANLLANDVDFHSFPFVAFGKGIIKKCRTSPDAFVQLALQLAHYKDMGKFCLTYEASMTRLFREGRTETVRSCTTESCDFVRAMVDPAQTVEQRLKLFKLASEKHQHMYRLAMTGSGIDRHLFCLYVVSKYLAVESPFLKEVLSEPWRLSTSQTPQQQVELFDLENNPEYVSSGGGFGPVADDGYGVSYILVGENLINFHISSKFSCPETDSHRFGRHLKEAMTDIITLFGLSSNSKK

[6] = target: T4, Carnitine O-palmitoyltransferase 1, liver isoform (Rattus norvegicus, UniProt P32198); assay: as §2
T4 sequence (P32198 whole entry): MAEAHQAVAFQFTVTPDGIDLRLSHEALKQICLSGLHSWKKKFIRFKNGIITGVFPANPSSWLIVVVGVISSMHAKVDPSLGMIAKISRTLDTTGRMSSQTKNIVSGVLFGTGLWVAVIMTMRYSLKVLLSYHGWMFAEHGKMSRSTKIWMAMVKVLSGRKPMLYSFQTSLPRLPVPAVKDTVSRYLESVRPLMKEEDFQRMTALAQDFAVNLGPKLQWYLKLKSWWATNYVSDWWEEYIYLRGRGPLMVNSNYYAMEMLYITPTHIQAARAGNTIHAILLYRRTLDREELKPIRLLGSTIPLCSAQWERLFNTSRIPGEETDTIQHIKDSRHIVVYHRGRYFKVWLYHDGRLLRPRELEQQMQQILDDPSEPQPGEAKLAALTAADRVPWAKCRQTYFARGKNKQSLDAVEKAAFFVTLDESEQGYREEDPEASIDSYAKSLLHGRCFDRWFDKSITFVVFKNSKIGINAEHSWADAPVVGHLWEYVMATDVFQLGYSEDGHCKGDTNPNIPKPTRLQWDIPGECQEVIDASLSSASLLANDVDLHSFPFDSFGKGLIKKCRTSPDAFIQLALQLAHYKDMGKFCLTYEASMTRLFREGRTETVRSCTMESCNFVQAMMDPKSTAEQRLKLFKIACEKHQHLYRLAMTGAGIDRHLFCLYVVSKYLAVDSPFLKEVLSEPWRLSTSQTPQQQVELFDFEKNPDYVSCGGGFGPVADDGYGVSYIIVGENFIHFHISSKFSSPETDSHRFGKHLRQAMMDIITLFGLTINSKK

[7] = SUPPLEMENTARY: PAMPA permeability assay; format: physicochemical; conditions: read-out: Permeability
[8] = target: T5, Carnitine O-palmitoyltransferase 1, muscle isoform (Homo sapiens, UniProt Q92523); assay: SUPPLEMENTARY: Inhibition of Carnitine palmitoyltransferase 1, muscle isoform; design: species or system Muscle tissue
T5 sequence (Q92523 whole entry): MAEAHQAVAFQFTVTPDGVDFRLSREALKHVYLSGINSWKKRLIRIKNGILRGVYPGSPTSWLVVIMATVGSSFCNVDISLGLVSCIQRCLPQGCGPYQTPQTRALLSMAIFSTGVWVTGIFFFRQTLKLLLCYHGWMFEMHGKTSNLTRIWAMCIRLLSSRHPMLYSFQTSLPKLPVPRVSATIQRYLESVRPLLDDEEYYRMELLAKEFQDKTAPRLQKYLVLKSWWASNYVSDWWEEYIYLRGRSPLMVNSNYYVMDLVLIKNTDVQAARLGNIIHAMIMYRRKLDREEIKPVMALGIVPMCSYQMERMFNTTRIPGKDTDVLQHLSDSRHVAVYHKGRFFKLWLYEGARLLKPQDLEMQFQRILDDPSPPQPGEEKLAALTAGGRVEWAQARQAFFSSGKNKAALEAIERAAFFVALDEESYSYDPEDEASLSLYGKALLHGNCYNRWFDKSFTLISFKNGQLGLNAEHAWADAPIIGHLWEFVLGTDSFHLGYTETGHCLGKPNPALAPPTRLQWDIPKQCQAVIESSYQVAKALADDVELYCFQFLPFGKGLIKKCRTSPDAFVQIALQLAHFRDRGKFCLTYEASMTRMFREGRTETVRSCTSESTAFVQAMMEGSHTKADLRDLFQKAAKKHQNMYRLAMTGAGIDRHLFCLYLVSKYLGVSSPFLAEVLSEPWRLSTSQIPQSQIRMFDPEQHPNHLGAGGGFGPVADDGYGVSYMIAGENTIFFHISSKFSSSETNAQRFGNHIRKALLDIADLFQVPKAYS

solubility kinetic [1] [µg/mL]	pIC50 [2]	pIC50 [3]	logD [4]	pIC50 [5]	pIC50 [6]	Papp [7] [×10⁻⁶ cm/s]	pIC50 [8]	Structure (SMILES)
16 (≈ 35.2 µM)	< 4.00	4.26	0.5	7.70	7.66	0.0275	6.65	O=C(Nc1ccc(-c2nnn[nH]2)cc1)c1cccc(NS(=O)(=O)c2cccc(Cl)c2)c1
44 (≈ 87.2 µM)	5.53	5.24	1.93	7.47	6.92	3.63	5.31	O=C(O)c1ccc(NC(=O)c2cccc(S(=O)(=O)N3CCCc4ccc(C(F)(F)F)cc43)c2)cc1
310 (≈ 629 µM)	5.87	5.74	1.62	6.91	6.25	0.841	4.52	Cc1cc(C(=O)Nc2ccc(C(=O)O)cc2)cc(S(=O)(=O)Nc2cccc(C(F)(F)F)c2)c1C
13 (≈ 26 µM)	< 4.00	4.59	0.49	7.06	6.86	2.25	4.27	O=C(O)c1ccc(NC(=O)c2ccc(Cl)c(NS(=O)(=O)c3cc(Cl)cc(Cl)c3)c2)cc1
> 598	5.97	5.52	0.56	7.36	6.60	1.57	< 4.00	COc1ccc(Cl)cc1S(=O)(=O)Nc1cc(C(=O)Nc2ccc(C(=O)O)cc2)cc(OC)c1OC

The next lines start with the compound.

Structure (SMILES)	solubility kinetic [1] [µg/mL]	pIC50 [2]	pIC50 [3]	logD [4]	pIC50 [5]	pIC50 [6]	Papp [7] [×10⁻⁶ cm/s]	pIC50 [8]
COc1ccc(Cl)cc1S(=O)(=O)N1CC(C(=O)O)Oc2ccc(C(=O)Nc3cccc(F)c3)cc21 (stereo unspecified)	521 (≈ 1000 µM)	< 4.00	< 4.00	-0.02	7.79	7.52	0.14	
NC(=O)c1ccc(-c2noc([C@H]3CCCCN3C(=O)COc3ccccc3)n2)cc1	52 (≈ 128 µM)	4.42	4.40	2.66	7.47	6.59	5.08	< 4.00
NS(=O)(=O)c1cccc(-c2noc([C@H]3CCCCN3C(=O)COc3ccccc3)n2)c1	33 (≈ 74.6 µM)	4.24	4.21	2.17	7.06	6.69	1.63	< 4.00
O=C(O)c1cccc(-c2noc([C@H]3CCCCN3C(=O)COc3ccccc3)n2)c1	> 461	< 4.00	< 4.00	0.99	7.03	5.83	1.92	4.03
CCN(CC)C(=O)c1ccc(-c2noc([C@H]3CCCCN3C(=O)COc3ccccc3)n2)cc1	31 (≈ 67 µM)	4.88	4.71	3.3	7.40	5.98	1.49	< 4.00
O=C(COc1ccccc1)N1CCCC[C@@H]1c1nc(-c2ccc(Cl)cc2)no1	11 (≈ 27.6 µM)	< 4.00	< 4.00	> 3	6.72	6.64	0.962	< 4.00
NC(=O)c1cccc(-c2noc([C@H]3CCCCN3C(=O)COc3ccccc3)n2)c1	42 (≈ 103 µM)	4.34	4.78	2.57	7.39	6.81	2.55	4.14
O=C(COc1ccccc1)N1CCCC[C@@H]1c1nc(-c2ccc(S(=O)(=O)NCCO)cc2)no1	65 (≈ 134 µM)	4.31	4.87	2.29	7.22	6.39	2.27	< 4.00
O=C(c1cc(-c2noc([C@H]3CCCCN3C(=O)COc3ccccc3)n2)ccn1)N1CCOCC1	> 523	4.05	< 4.00	1.75	7.09	6.05	5.89	< 4.00
